Data: patent US10538497B2, “Compounds as indoleamine 2,3-dioxygenase inhibitors” (Merck Sharp & Dohme Corp., priority 2015, dated 2020)

Experiments:
IDO1 [1] = molecular target: T1, IDO1 (Homo sapiens (Human), UniProt P14902); assay: IDO1 Cellular Assay in Frozen HEK293 Cells Transiently Transfected with Human IDO1; format: cell-based; details: HEK293 cells transiently transfected with human IDO1; read-out: IDO1 HEK293 Cell Assay, IC50
IDO1 [2] = molecular target: T1, IDO1; assay: IDO1 Cellular Assay in Hela Cells Stimulated with IFNγ; format: cell-based; details: Hela cells stimulated with IFNγ 100 ng/mL; read-out: IDO1 HELA Cell Assay, IC50
IDO1 [3] = molecular target: T1, IDO1; assay: IDO1 Human Whole Blood Assay; format: cell-based; details: LPS and IFNγ 100 ng/mL, kynurenine by LC/MS/MS
Method: IDO1 Human Whole Blood Assay
LPS and IFNγ was prepared in RPMI to a 10× of final conc. (1000 ng/mL), final concentration is 100 ng/mL.
Human whole blood was drawn in sodium heparin coated tubes from healthy internal donors. Two hundred fourty μL of blood was transferred to each of the wells of a v-bottom 96 well plate. Thirty μL of compound was transferred from intermediate dilution plate, and incubated for 15 min. […] from stimulants was then transferred to blood and mixed thoroughly. Plate was covered with breathable membrane and incubated at 37° C. for overnight (18 h).
On day 2 isotope labeled standard of kunurenine and tryptophan was made in water at 10× concentration and 30 μL was added to the blood at 3 μM final concentration. The assay plates were centrifuged at 300×G for 10 min with no brake to separate plasma from red blood cells. Sixty μL of plasma samples was removed without disturbing red blood cells. Plasma was diluted with RPMI in 1:1 ratio and proteins were precipitated out with two volume of Acetonitrile. The plates was centrifuged at 4000×G for 60 min. Twenty μL of supernatant was carefully transferred to a 384 well plate contain 40 μL of 0.1% formic acid in water and analysed by LC/MS/MS.
LC/MS/MS analyses were performed using Thermo Fisher's LX4-TSQ Quantum Ultra system. This system consists of four Agilent binary high-performance liquid chromatography (HPLC) pumps and a TSQ Quantum Ultra triple quadrupole MS/MS instrument. For each sample, 5 μL were injected onto an Atlantis T3 column column (2.1 mm×150 mm, 3 μm particle size) from Waters. The mobile phase gradient pumped at 0.8 mL/min was used to elute the analytes from the column at 25° C. The elution started at 0% B increasing linearly to 25% B at 6.5 min, holding at 25% for 1 min, re-equilibrating to 10 min. Mobile phase A consisted of 0.1% formic acid in water. Mobile phase B consisted of 0.1% of formic acid in acetonitrile. Data was acquired in positive mode using a HESI interface. The operational parameters for the TSQ Quantum Ultra instrument were a spray voltage of 4000 V, capillary temperature of 380° C., vaporizer temperature 400° C., shealth gas 60 arbitrary units, Aux gas 20 arbitrary units, tube lens 85 and collision gas 1.2 mTorr. SRM chromatograms of kynurenine (Q1: 209.2>Q3:94.0) and internal standard (Q1: 215.3>Q3:98.2) were collected for 90 sec. The peak area was integrated by Xcalibur Quan software. The ratios between the kynurenine generated in the reaction and 2D6-Kynurenine spiked-in internal standard were used to generate percentage inhibition and IC50 values. Compounds were titrated and IC50's were calculated by 4 parameter sigmoidal curve fitting formula.

IDO1 [4] = molecular target: T1, IDO1; assay: IDO1 Enzyme Assay; details: HIS-tagged recombinant IDO1, 40 nM
[5] = read-out: IDO1 Enzyme Assay, IC50

T1 sequence (P14902 whole entry): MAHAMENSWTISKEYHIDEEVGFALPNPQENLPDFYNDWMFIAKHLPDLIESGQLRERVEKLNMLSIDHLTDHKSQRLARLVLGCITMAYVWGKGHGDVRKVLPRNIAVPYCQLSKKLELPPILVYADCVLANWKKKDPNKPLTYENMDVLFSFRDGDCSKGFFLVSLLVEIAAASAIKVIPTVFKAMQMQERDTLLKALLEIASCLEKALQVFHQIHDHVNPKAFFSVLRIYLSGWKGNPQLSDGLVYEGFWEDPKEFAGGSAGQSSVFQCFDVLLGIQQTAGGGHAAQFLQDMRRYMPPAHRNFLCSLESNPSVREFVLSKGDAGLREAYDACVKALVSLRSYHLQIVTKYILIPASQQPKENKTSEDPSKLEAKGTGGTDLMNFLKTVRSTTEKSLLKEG

Row | IC50 (IDO1 [1]) | IC50 (IDO1 [2]) | IC50 (IDO1 [3]) | IC50 (IDO1 [4]; [5]) | IC50 (IDO1 [4]; IDO1 Enzyme Assay, IC50, nM) | SMILES
1 | 0.0134 µM | 0.0284 µM | 0.155 µM | 14 nM | – | COC(=O)CNP(=O)(CSc1nonc1/C(=N/O)Nc1ccc(F)c(Br)c1)NCC(=O)OC [Example 120, methyl 6-[({4-[N-(3-bromo-4-fluorophenyl)-N′-hydroxycarbamimidoyl]-1,2,5-oxadiazol-3-yl}sulfanyl)methyl]-3-oxo-2-oxa-5,7-diaza-6-phosphanonan-9-oate 6-oxide]
2 | 0.0771 µM | 0.068 µM | 1.27 µM | 50.9 nM | – | O=C(CSc1nonc1/C(=N/O)Nc1ccc(F)c(Br)c1)NC(CO)CO [Example 145, 2-({4-[N-(3-bromo-4-fluorophenyl)-N′-hydroxycarbamimidoyl]-1,2,5-oxadiazol-3-yl}sulfanyl)-N-[2-hydroxy-1-(hydroxymethyl)ethyl]acetamide]
3 | 0.0175 µM | 0.0086 µM | 0.13 µM | 18.1 nM | – | COC(=O)CNP(=O)(CCSc1nonc1/C(=N/O)Nc1ccc(F)c(Br)c1)NCC(=O)OC [Example 44, Dimethyl 2,2′-(((2-((4-(N-(3-bromo-4-fluorophenyl)-N′-hydroxycarbamimidoyl)-1,2,5-oxadiazol-3-yl)thio)ethyl)phosphoryl)bis(azanediyl))(Z)-diacetate]
4 | 0.0654 µM | 0.166 µM | 0.395 µM | 88 nM | – | CNC(=O)CSc1nonc1/C(=N/O)Nc1ccc(F)c(C#N)c1 [Example 185, 2-({4-[N-(3-cyano-4-fluorophenyl)-N′-hydroxycarbamimidoyl]-1,2,5-oxadiazol-3-yl}sulfanyl)-N-methylacetamide]
5 | 0.0444 µM | 0.0818 µM | > 10 µM | 72.4 nM | – | Cc1cc(CSc2nonc2/C(=N/O)Nc2ccc(F)c(Br)c2)[nH]c(=O)c1 [Example 102, N-(3-bromo-4-fluorophenyl)-N′-hydroxy-4-{[(4-methyl-6-oxo-1,6-dihydropyridin-2-yl)methyl]sulfanyl}-1,2,5-oxadiazole-3-carboximidamide]
6 | 0.136 µM | 0.261 µM | 3.24 µM | 119 nM | – | N#Cc1cc(N/C(=N\O)c2nonc2SCCNS(N)(=O)=O)ccc1F [Example 181, N-(3-cyano-4-fluorophenyl)-N′-hydroxy-4-{[2-(sulfamoylamino)ethyl]sulfanyl}-1,2,5-oxadiazole-3-carboximidamide]
7 | 0.0416 µM | 0.0157 µM | 4.12 µM | 32.3 nM | – | O=c1cccc(CSc2nonc2/C(=N/O)Nc2ccc(F)c(Br)c2)[nH]1 [Example 86, N-(3-bromo-4-fluorophenyl)-N′-hydroxy-4-{[(6-oxo-1,6-dihydropyridin-2-yl)methyl]sulfanyl}-1,2,5-oxadiazole-3-carboximidamide]
8 | 0.083 µM | 0.0571 µM | 0.635 µM | 37.8 nM | – | Cn1c(CSc2nonc2/C(=N/O)Nc2ccc(F)c(Br)c2)n[nH]c1=O [Example 98, N-(3-bromo-4-fluorophenyl)-N′-hydroxy-4-{[(4-methyl-5-oxo-4,5-dihydro-1H-1,2,4-triazol-3-yl)methyl]sulfanyl}-1,2,5-oxadiazole-3-carboximidamide]
9 | 0.0294 µM | 0.0842 µM | 0.891 µM | – | 85.3 nM | CC(C)(O)C(O)CSc1nonc1/C(=N/O)Nc1ccc(F)c(Br)c1 (centres unmarked) [Example 30, N-(3-bromo-4-fluorophenyl)-4-((2,3-dihydroxy-3-methylbutyl)thio)-N′-hydroxy-1,2,5-oxadiazole-3-carboximidamide]
10 | 0.01 µM | 0.0226 µM | 0.903 µM | 43.7 nM | – | O/N=C(\Nc1ccc(F)c(Br)c1)c1nonc1SCc1nnc[nH]1 [Example 191, N-(3-bromo-4-fluorophenyl)-N′-hydroxy-4-[(4H-1,2,4-triazol-3-ylmethyl)sulfanyl]-1,2,5-oxadiazole-3-carboximidamide]
11 | 0.269 µM | 0.245 µM | 0.384 µM | 96.7 nM | – | N#Cc1cc(N/C(=N\O)c2nonc2SC[C@@H](O)CO)ccc1F [Example 140, N-(3-cyano-4-fluorophenyl)-4-{[(2S)-2,3-dihydroxypropyl]sulfanyl}-N′-hydroxy-1,2,5-oxadiazole-3-carboximidamide]
12 | 0.0921 µM | 0.182 µM | 1.67 µM | 76.2 nM | – | N#Cc1cc(N/C(=N\O)c2nonc2SCCNC(=O)C2CC2)ccc1F [Example 40, N-(2-((4-(N-(3-cyano-4-fluorophenyl)-N′-hydroxycarbamimidoyl)-1,2,5-oxadiazol-3-yl)thio)ethyl)cyclopropanecarboxamide]
13 | 0.0331 µM | 0.0272 µM | 0.184 µM | 37.5 nM | – | O=C1CC[C@@H](CSc2nonc2/C(=N/O)Nc2ccc(F)c(Br)c2)N1 [Example 84, N-(3-bromo-4-fluorophenvl)-N′-hydroxy-4-({[(2S)-5-oxopyrrolidin-2-yl]methyl}sulfanyl)-1,2,5-oxadiazole-3-carboximidamide]
14 | 0.0777 µM | 0.0646 µM | 0.923 µM | 34.9 nM | – | O=c1ccc(CSc2nonc2/C(=N/O)Nc2ccc(F)c(Br)c2)n[nH]1 [Example 35, N-(3-bromo-4-fluorophenyl)-N′-hydroxy-4-(((6-oxo-1,6-dihydropyridazin-3-yl)methyl)thio)-1,2,5-oxadiazole-3-carboximidamide]
15 | 0.373 µM | 0.494 µM | 1.21 µM | 154 nM | – | N#Cc1cc(N/C(=N\O)c2nonc2SC[C@H](O)CO)ccc1F [Example 147, N-(3-cyano-4-fluorophenyl)-4-{[(2R)-2,3-dihydroxypropyl]sulfanyl}-N′-hydroxy-1,2,5-oxadiazole-3-carboximidamide]
16 | 0.0355 µM | 0.0572 µM | 1.08 µM | 60.8 nM | – | N#Cc1cc(N/C(=N\O)c2nonc2SCCNS(=O)(=O)C2CC2)ccc1F [Example 178, N-(3-cyano-4-fluorophenyl)-4-({2-[(cyclopropylsulfonyl)amino]ethyl}sulfanyl)-N′-hydroxy-1,2,5-oxadiazole-3-carboximidamide]
17 | 0.0425 µM | 0.0395 µM | 0.441 µM | 34.8 nM | – | OCC(O)CSc1nonc1/C(=N/O)Nc1ccc(F)c(Br)c1 (centres unmarked) [Example 17, (Z)-N-(3-bromo-4-fluorophenyl)-4-((2,3-dihydroxypropyl)thio)-N′-hydroxy-1,2,5-oxadiazole-3-carboximidamide]
